Measurements as given in a compilation of properties of binary mixtures (doi:10.1016/j.molliq.2021.116359).

Assay: xn = mol fraction of the nth substance listed
Conditions: 101.3 kPa, x1 = 0.2

CCCC[N+](CCCC)(CCCC)CCCC.O=S(=O)([O-])O + CCCCCCCCCO
Conditions | electrical conductivity [S/m] | speed of sound [m/s] | viscosity [mPa·s]
298.15 K | 0.0037 | 1411.5 | 137.2
303.15 K | 0.005 | 1395 | 107.9
318.15 K | 0.0102 | 1346.7 | 51.9
323.15 K | 0.0123 | 1331.1 | 41.9
328.15 K | 0.0146 | 1315.7 | 33.79
333.15 K | 0.018 | 1300.3 | 27.74
